The values below come from US8076342B2, “Malonate salt of 4-((1R,3S)-6-chloro-3-phenylindan-1-yl)-1,2,2-trimethylpiperazine and uses of same” (priority 2003, dated 2011).

“Also recorded” adds a separate entry of the source.

Data set [1] is described as follows: Hygroscopicity by Dynamic Vapour sorption (DVS). The format is physicochemical. The source says:
The hygroscopicity of the fumarate salt, the succinate salt (the alpha form) and the malonate salt was investigated by Dynamic Vapour sorption (DVS). […] The malonate absorbs gradually up to 1% of water when the relative humidity is raised to 95%, but with no hysteresis.

Data set [2] can be described thus: Stability of the salts (heat/humidity, heat, light; HPLC impurity peak area). The data set is classed as physicochemical. As for the experimental part:
The stability of the salts was investigated under the following circumstances:
Heat, 60° C./80% RH: Samples were stored at 60° C. with 80% RH for one week. Then they were dissolved and analysed by HPLC.
Heat, 90° C.: Samples (˜10 mg) were stored at 90° C. in closed containers containing 1 droplet of water. Then they were dissolved and analysed by HPLC.
Light: Samples were placed in the light cabinet at 250 w/m^2 for 24 hours. Then they were dissolved and analysed by HPLC.
The area of peaks in the chromatograms besides the peaks corresponding to the substance or the acid was summarized.

The subject of another data set is rats. Particulars: cited from earlier work.
In another data set the test system is dopamine D1 receptor. The note with it: cited from earlier work.
In another data set the target is dopamine D2 receptor (Homo sapiens, UniProt P14416). Particulars: cited from earlier work.
A further data set has as its system D1 and D2. The note with it: cited from earlier work.
The test system of a further data set is 5-HT2 receptor. The note with it: cited from earlier work.
Setting [3] is: 90° C., closed containers containing 1 droplet of water.

dopamine D2 receptor, sequence (P14416 whole entry, species assumed): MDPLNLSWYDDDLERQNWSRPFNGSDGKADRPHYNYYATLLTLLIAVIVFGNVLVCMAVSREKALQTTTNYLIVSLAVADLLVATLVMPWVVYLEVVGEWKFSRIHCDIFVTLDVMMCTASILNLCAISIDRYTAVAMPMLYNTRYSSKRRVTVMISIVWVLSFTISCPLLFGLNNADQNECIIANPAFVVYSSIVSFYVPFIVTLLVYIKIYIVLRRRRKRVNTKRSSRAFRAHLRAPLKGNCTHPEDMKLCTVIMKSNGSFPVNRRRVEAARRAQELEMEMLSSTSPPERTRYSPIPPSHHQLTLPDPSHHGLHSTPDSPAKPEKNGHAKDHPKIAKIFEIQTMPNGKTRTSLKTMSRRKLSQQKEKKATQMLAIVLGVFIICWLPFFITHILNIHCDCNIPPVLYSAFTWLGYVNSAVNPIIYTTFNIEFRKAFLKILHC

`CN1CCN([C@@H]2C[C@@H](c3ccccc3)c3ccc(Cl)cc32)CC1(C)C.O=C(O)CC(=O)O` (relative stereo) [Malonate 1:1, trans-4-((1R,3S)-6-chloro-3-phenylindan-1-yl)-1,2,2-trimethylpiperazinium (I) hydrogen malonate]: the Hygroscopicity entry in data set [1] (DVS) is “non-hygroscopic”. In addition, in data set [1] (DVS), the “Hysteresis of water sorption” value was “no hysteresis; also recorded: no hysterhesis”. In addition, in data set [1] (relative humidity raised to 95%), the Water absorbed entry is reported as “up to 1%”. Also, the “Sum of impurity peak area %” value came out at 0% in data set [2] (60° C./80% RH, one week); 6.19% in data set [2] (setting [3]); 0.06% in data set [2] (Light, 250 w/m^2 for 24 hours). For the same molecule, the “Stability compared with the fumarate salt” value in data set [2] (60° C./80% relative humidity (RH)) is listed as “more stable”; in data set [2] (90° C.), “less stable”; in data set [2] (exposed to light), “similar”.
For the molecule `CN1CCN([C@@H]2C[C@@H](c3ccccc3)c3ccc(Cl)cc32)CC1(C)C.O=C(O)/C=C/C(=O)O` (relative stereo) [Fumarate, trans-4-((1R,3S)-6-chloro-3-phenylindan-1-yl)-1,2,2-trimethylpiperazinium (I) hydrogen fumarate], in data set [1] (DVS), the Hygroscopicity result is on record as “non-hygroscopic”. Also, the Induction of catalepsy entry in the data set on rats is recorded as “does not induce catalepsy”. Further, the D1 antagonist potency result with dopamine D1 receptor is reported as “potent”. Moreover, the “Sum of impurity peak area %” value was 0.07% in data set [2] (60° C./80% RH, one week); 0.09% in data set [2] (setting [3]); 0.06% in data set [2] (Light, 250 w/m^2 for 24 hours). The D2 antagonist potency entry at dopamine D2 receptor is given as “potent”. For the same molecule, the “D1 versus D2 antagonist potency in vivo” value in the data set with D1 and D2 is listed as “equipotent”. The 5-HT2 antagonist potency result in the data set on 5-HT2 receptor is listed as “potent”.
Turning to `CN1CCN([C@@H]2C[C@@H](c3ccccc3)c3ccc(Cl)cc32)CC1(C)C.O=C(O)CCC(=O)O` (relative stereo) [Succinate 1:1 alpha, trans-4-((1R,3S)-6-chloro-3-phenylindan-1-yl)-1,2,2-trimethyl-piperazinium (I) hydrogen succinate], in data set [1] (DVS), the Hygroscopicity entry is reported as “non-hygroscopic”. Besides, in data set [2], the “Stability compared with the fumarate salt and the hydrogen malonate salt” value is on record as “more stable”. Moreover, the “Sum of impurity peak area %” value in data set [2] (60° C./80% RH, one week) is on record as 0%; in data set [2] (setting [3]), 0%; in data set [2] (Light, 250 w/m^2 for 24 hours) it was 0%. Moreover, the Degradation result in data set [2] (all stability conditions) is recorded as “does not show any degradation at all”.
